Measurements from ChEMBL document CHEMBL1144616, “Synthesis and biological evaluation of 7-azaindole derivatives, synthetic cytokinin analogues” (Bioorg Med Chem Lett, 2007).
Active and inactive are the calls of the source. The rule behind the calls is not given here.

Tests used:
[1] = system: HL-60; experiment: Antiproliferative activity against human HL60 cells; type: functional, cell-based
[2] = system: HL-60; experiment: Proapoptotic effect in human HL60 cells at 10 uM; type: functional, cell-based
[3] = system: HL-60; experiment: Cell cycle arrest in human HL60 cells assessed as increase in preG1 fraction relative to control; type: functional
[4] = system: HL-60; experiment: Proapoptotic effect in human HL60 cells at 500 uM; type: functional, cell-based

Row | Compound | IC50 [1] [µM] | Activity [2] | Activity [3] [%] | Activity [4]
1 | c1ccc(Nc2ccnc3[nH]ccc23)cc1 | 23.5 | Active | 39.9 | 
2 | Cn1ccc2c(NCCc3ccccc3)ccnc21 | > 100 |  |  | Active
3 | c1coc(CNc2ncnc3[nH]cnc23)c1 [KINETIN] | 21.9 |  |  | 
4 | c1ccc(CCNc2ccnc3[nH]ccc23)cc1 | 23.7 | Active |  | 
5 | c1ccc(CNc2ncnc3[nH]cnc23)cc1 [6-BENZYLAMINOPURINE] | > 100 |  |  | 
6 | c1ccc(CNc2ccnc3[nH]ccc23)cc1 | 12.6 | Active |  | 

The next lines start with results.

Row | IC50 [1] [µM] | Compound | Activity [2] | Activity [3] [%] | Activity [4]
7 | 23.6 | c1ccc(N2CCN(c3ccnc4[nH]ccc34)CC2)cc1 | Active |  | 
8 | > 100 | Cn1ccc2c(Nc3ccccc3)ccnc21 |  |  | Active
9 | > 100 | Cn1ccc2c(NCc3ccccc3)ccnc21 |  |  | Active
10 | > 100 | Cn1ccc2c(N3CCN(c4ccccc4)CC3)ccnc21 |  |  | Active
